{
  "source": "patent US20040127416A1",
  "about": "“Therapeutic bioconjugates” (priority 2002, published 2004)",
  "key": {"[1]": {"system": "TNF-α stimulated, ICAM-expressing BECs", "experiment": "inflammatory cell adhesion assay: U937 monocyte adhesion to TNF-α stimulated bovine endothelial cell monolayers", "format": "cell-based", "details": "U937 cells on TNF-α stimulated", "description": "This experiment illustrates the activity of the bioconjugate, whose synthesis was described above, in the inflammatory cell adhesion assay. Bovine endothelial cell (BEC) monolayers were established in 24-well culture dishes. At 24 h prior to the assay, normal medium (Minimal Eagle's Medium with 10% fetal bovine serum, 1% ABAM and 1% L-glutamine) (Gibco, CA, USA) was replaced with medium containing tumor necrosis factor α (TNF-α, 10 ng/ml). Following the 24 h incubation period, each sample well received a medium change.\nTreated sample groups received medium containing 6% dextran bioconjugate or 6% bioconjugate. […] Two other control treatments were given: a medium change with no dextran or peptide was given to a sample group pretreated with TNF-α, and a positive control that was not pretreated with TNF-α. After a 30-minute incubation period, the medium in all wells was replaced with medium containing the human monocyte cell line U937 (1×10^5/ml) (ATCC, Manassas, Va.). All samples were incubated for another 30 minutes, then washed three times with PBS to remove non-adherent cells. The average number of adherent cells per 100× microscopic field was determined for each sample group."}, "inflammatory HUVECs": {"system": "inflammatory HUVECs", "experiment": "in vitro ICAM-1-mediated leukocyte cell adhesion assay: U937 adhesion to TNF-α treated HUVEC monolayers", "format": "cell-based, human", "details": "TNF-α (10 ng/ml, 24 h) treated HUVECs; medium containing 6% dextran bioconjugate, 30 min; n=4 wells", "description": "To assess the effect of these peptide-dextran bioconjugates on inflammatory cell adhesion, the following in vitro ICAM-1-mediated leukocyte cell adhesion assay was performed. HUVEC monolayers were established in 24-well culture dishes. At 24 h prior to the assay, normal culture media were replaced with medium containing TNF-α (10 ng/ml). Following the 24 h incubation period, each sample well received a medium change. Treated sample groups received medium containing 6% dextran bioconjugate (dextran conjugated to the A domain peptide CNAFKILVVITDGEK). Untreated control samples received normal medium. Negative sham control samples received medium containing dextran conjugate with a scrambled A domain sequence (KCENGADFTKIIVLV). All samples were then incubated for 30 min prior to the adhesion assay. Medium was removed from all wells following the 30 min incubation and replaced with medium containing U937 monocytic cells (1×10^5/ml). All samples were then incubated for another 30 min. After this incubation period, samples were washed three times with PBS to remove non-adherent monocytes. The samples were then fixed, and an average number of adherent monocytes per 100× microscopic field was determined for each sample group. Statistical comparisons between sample groups (n=4 replicate wells per group) were performed using a student's t-test."}, "[2]": {"target": "T1, ICAM-1 expressed on TNF-alpha stimulated bovine endothelial cells (BEC) (bovine, UniProt Q95132 28-535)", "T1 sequence (looked up)": "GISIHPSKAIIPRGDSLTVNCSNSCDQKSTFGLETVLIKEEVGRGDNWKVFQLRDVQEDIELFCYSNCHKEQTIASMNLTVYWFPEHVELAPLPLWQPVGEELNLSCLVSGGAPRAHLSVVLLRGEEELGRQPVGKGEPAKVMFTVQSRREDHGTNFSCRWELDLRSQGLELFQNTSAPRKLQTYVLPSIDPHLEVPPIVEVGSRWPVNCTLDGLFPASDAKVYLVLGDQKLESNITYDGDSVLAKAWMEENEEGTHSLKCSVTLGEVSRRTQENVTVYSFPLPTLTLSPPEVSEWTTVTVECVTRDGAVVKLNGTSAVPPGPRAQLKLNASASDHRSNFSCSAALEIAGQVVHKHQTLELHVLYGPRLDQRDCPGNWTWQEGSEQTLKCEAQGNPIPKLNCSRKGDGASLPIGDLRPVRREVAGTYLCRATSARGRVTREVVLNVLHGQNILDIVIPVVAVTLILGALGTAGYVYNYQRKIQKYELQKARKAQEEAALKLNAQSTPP", "experiment": "cell-based or functional assay"}},
  "note": "Ends that are not written are not given here. glycidyl methacrylate‑derivatized dextran = not defined here",
  "data": [
    {"molecule": "active peptide conjugate: methacroylated dextran (about 70 kD) coupled to synthetic peptide CNAFKILVVITDGEK, based on the ICAM-1-binding portion of integrin αmβ2 (CD11b/CD18) (also: coupled to methacroylated dextran (about 70 kD), site not given here)", "values": [
      {"measurement": "effect on monocyte adhesion (in words)", "setting": "[1]; listed as active dextran bioconjugate", "result": "prevented monocyte adhesion to the extent observed in non-stimulated BECS"},
      {"measurement": "effect on monocyte adhesion (in words)", "setting": "[1]; listed as bioconjugate", "result": "reducing monocyte adhesion to levels observed in control, non-stimulated cells"},
      {"measurement": "U937 cell adhesion reduced by", "setting": "inflammatory HUVECs", "result": 87.7, "unit": "%"}
    ]},
    {"molecule": "inactive peptide conjugate: dextran bioconjugate containing an inactive scrambled sequence of the A-domain peptide, CTVDLKFGIKNIEAV; sham control (also: conjugated to dextran, attachment site not given here) [reference compound]", "values": [
      {"measurement": "effect on monocyte adhesion (in words)", "setting": "[1]", "result": "inhibited cell adhesion poorly"}
    ]},
    {"molecule": "CTVDLKFGIKNIEAV [inactive peptide, reference compound]", "values": [
      {"measurement": "effect on monocyte adhesion (in words)", "setting": "[1]", "result": "comparable to no treatment after the TNF-α activation"}
    ]},
    {"molecule": "C(glycidyl methacrylate‑derivatized dextran)NAFKILVVITDGEK (reading uncertain; also: polyvalent conjugate on dextran, peptides per dextran not given here)", "values": [
      {"measurement": "relative monocyte adherence (U937 cells on TNF-alpha activated BEC; negative control = 100%)", "setting": "[2]", "result": 3.34, "unit": "%"}
    ]},
    {"molecule": "CNAFKILVVITDGEK", "note": "[synthetic peptide CNAFKILVVITDGEK, unconjugated]", "values": [
      {"measurement": "relative monocyte adherence (U937 cells on TNF-alpha activated BEC; negative control = 100%)", "setting": "[2]", "result": 56.3, "unit": "%"}
    ]},
    {"molecule": "CTVDLKFGIKNIEAV", "note": "[inactive scrambled peptide CTVDLKFGIKNIEAV, unconjugated]", "values": [
      {"measurement": "relative monocyte adherence (U937 cells on TNF-alpha activated BEC; negative control = 100%)", "setting": "[2]", "result": 95.7, "unit": "%"}
    ]},
    {"molecule": "CTVDLKFGIKNIEAV (not fully specified (residue 1); also: Cys sulfhydryl coupled to glycidyl methacrylate-derivatized dextran (about 70 kD))", "note": "[dextran bioconjugate containing the inactive scrambled A-domain peptide CTVDLKFGIKNIEAV]", "values": [
      {"measurement": "relative monocyte adherence (U937 cells on TNF-alpha activated BEC; negative control = 100%)", "setting": "[2]", "result": 55.6, "unit": "%"}
    ]}
  ]
}
